How the values were obtained:
[1] = Daytime color of polyurethane film with dye laminated to retroreflective sheeting; assay type: physicochemical; settings: dye 0.2 wt.-% in aliphatic polyester polyurethane PN03.214, 0.1 mm film on Scotchlite 3970
Procedure: (§1) The daytime color of each article was measured using a Labsphere BFC-450 Bispectral Colorimeter commercially available from Labsphere, North Sutton, N.H. The daytime chromaticity (x,y), total luminance factor (YT), and fluorescence luminance factor (YF; which is a measure of the fluorescent properties of the article) calculated for the CIE D65 and the CIE 1931 observer are provided in TABLE II
Examples 24-27 were prepared as described in Examples 8-10, except that the dyes of Examples 1, 3, 6-(2-hydroxy-ethoxy)-14H-anthra(2,1,9-mna)thioxanthene-14-one (described by Carlini et al.) and 6-methoxy-14H-anthra(2,1,9-mna)thioxanthene-14-one were independently used at 0.2 wt.-% loading in an aliphatic polyester polyurethane resin commercially available from Huntsman Polyurethanes, West Deptford, N.J., USA under the trade designation “PN03.214”. The extrusion conditions for the polyurethane were 154-191° C. and the resultant film thickness was 0.1 mm.
The resultant films were laminated to Scotchlite 3970 reflective sheeting on aluminum panels as described in Examples 8-10. Color values were measured as described in Examples 8-10 and the results set out in TABLE VII.

[2] = Daytime color and visual inspection of PMMA film with dye laminated to retroreflective sheeting; assay type: physicochemical; settings: for visual inspection of film for undissolved dye: extruded PMMA CP923 film 0.1 mm, 6-methoxy dye at 1 wt.-%, dyes of Examples 1-2 at up to 1.27 wt-%
Procedure: as §1
Examples 11-16 were prepared with the compounds of Examples 1-2 and 6-methoxy-14H-anthra(2,1,9-mna)thioxanthene-14-one in polymethylmethacrylate (PMMA) resin at the wt.-% of dye shown in TABLE III. The samples were prepared by dry blending the dye with a medium impact modified grade PMMA resin commercially available from Ineos Acrylics Inc., Cordova, Tenn. under the trade designation “CP923”. Films of 0.1 mm thickness were extruded through a single screw extruder with three heating zones set at 249° C. to 260° C. […] Examples 11 and 12 and Examples 13 and 14 had equal molar loadings of dye.
The resultant films were laminated to Scotchlite 3970 reflective sheeting on aluminum panels as described in Examples 8-10. Color values were measured as described in Examples 8-10 and the results set out in TABLE III.

[3] = Daytime color of Paraloid B66 dye coating on retroreflective sheeting; assay type: physicochemical; settings: for YF (fluorescence luminance factor) / YT (total luminance factor) / x (daytime chromaticity) / y (daytime chromaticity): 0.10 parts dye in 64.8 parts Dowanol DPMA and 38.2 parts Paraloid B66, coated on Scotchlite 3970 with #16 wire wound bar, dried
Procedure: as §1
Examples 19-21 were prepared by independently stirring 0.10 parts of the dyes of Examples 1 and 3 and 6-methoxy-14H-anthra(2,1,9-mna)thioxanthene-14-one in a clear vehicle solution of 64.8 parts Dowanol DPMA and 38.2 parts Paraloid B66.
The fluorescent dye solutions were coated on Scotchlite 3970 reflective sheeting using a #16 wire wound bar. The coating was air dried for 5 minutes and then dried in a 120° C. oven for 45 minutes. Color values were measured as described in Examples 8-10 and the results set out in TABLE V.

[4] = Daytime color of polycarbonate sheet with dye laminated to retroreflective sheeting (Labsphere BFC-450 Bispectral Colorimeter); assay type: physicochemical; settings: 0.2% dye in polycarbonate FCR-2407, 0.1 mm sheet on Scotchlite 3970; CIE D65, CIE 1931 observer
Procedure: Examples 8-10 were prepared with the compounds of Examples 1 and 2 and 6-methoxy-14H-anthra(2,1,9-mna)thioxanthene-14-one at a 0.2% loading in polycarbonate FCR-2407. Extrusion conditions for the polycarbonate were 260-304° C. using a single screw extruder. Optically transparent pressure sensitive adhesive with a liner on both sides of the adhesive was laminated to the 0.1 mm thick sheet of polycarbonate by removing one of the liners from the adhesive and then applying the exposed adhesive to the polycarbonate sheet with two passes of a roller using hand pressure.
The remaining liner was removed from the adhesive and the polycarbonate sheet construction was laminated to retroreflective sheeting commercially available from 3M under the trade designation “Scotchlite Diamond Grade LDP Reflective Sheeting Series 3970” (Scotchlite 3970) with two passes of a roller using hand pressure. The Scotchlite 3970 reflective sheeting had previously been laminated to a 7 cm wide by 28 cm long aluminum panel (6061T6 alloy with etch and desmut surface from Q Panel Company, Cleveland, Ohio) with two passes of a roller with hand pressure.
as §1

[5] = Dye concentration in saturated acetone solution at room temperature; assay type: physicochemical; settings: 72 hours at RT, 0.45 micron PTFE filtered, absorbance at 535 nm
Procedure: Examples 4-7 were prepared by placing 60-100 mg of each of the compounds of Examples 1-3 and 6-methoxy-14H-anthra(2,1,9-mna)thioxanthene-14-one (described by Carlini et al.) in a vial with 5.0 ml acetone. […] Each vial was hand shaken and the solution was filtered using a 0.45 micron polytetrafluoroethylene (PTFE) filter commercially available from VWR Scientific Products, West Chester, Pa. under the trade designation “Acrodisc 13CR PTFE”.
The amount of fluorescent dye in the saturated acetone solution was determined by measuring the major dye absorption band at 535 nm using a UV-Vis Spectrophotometer commercially available from Shimadzu Scientific Instruments, Inc., Columbia, Md. under the trade designation “Shimadzu model UV-2401PC”. Dye concentrations were calculated by measuring the absorbance of the saturated acetone solution, and then diluting that solution until absorbance of the resulting solution was below 3. The dyes were assumed to have equal absorbance per mole. Using the dilution and an absorbance coefficient of 16,100 A/mol/L (coefficient obtained in acetone for the dye of Example 3) and assuming a Beer's Law relationship, the concentration of dye in each saturated solution was calculated and is set out in TABLE I

[6] = Daytime color of copolyester film with dye laminated to retroreflective sheeting; assay type: physicochemical; settings: dye 0.2 wt.-% in copolyester resin, 0.1 mm film on Scotchlite 3970
Procedure: as §1
Examples 17-18 were prepared as described in Examples 8-10, except that the dyes of Examples 1 and 2 at a 0.2 wt.-% loading were independently incorporated into a copolyester resin. The copolyester resin was prepared using terephthalic and isophthalic acid in an 80/20 ratio and ethylene glycol in the conventional manner and analogous to the production of polyethylene terephthalate according to the method described in Macromolecular Syntheses, A Periodic Publication of Methods for the Preparation of Macromolecules, Collective Volume I, 1977, J. A. Moore, Editor, (John Wiley & Sons, New York; 1978);p. 17-21. The extrusion conditions for the copolyester were 254-260° C. using a single screw extruder and the resultant film thickness was 0.1 mm.
The resultant films were laminated to Scotchlite 3970 reflective sheeting on aluminum panels as described in Examples 8-10. Color values were measured as described in Examples 8-10 and the results set out in TABLE IV.

[7] = Daytime color of vinyl film with dye laminated to retroreflective sheeting; assay type: physicochemical; settings: 0.18 g dye in 65 g GEON 178 / Elvacite 2013 mixture, 0.04 mm vinyl film on Scotchlite 3970
Procedure: as §1
Examples 22-23 were prepared by independently stirring 0.18 g of the dye of Examples 1 and 3 into 65 g of a mixture composed of 42 wt.-% DIBK, xylol, and mineral spirit (1.7:2.3:1), 44 wt.-% of a polyvinyl chloride dispersion commercially available from PolyOne, Cleveland, Ohio under the trade designation “GEON 178” and 14 wt.-% of a polyacrylate commercially available from Ineos Acrylics Inc., Cordova, Tenn. under the trade designation “Elvacite 2013”. Each mixture was allowed to stand at room temperature for one hour prior to knife coating onto a pre-sized paper substrate. Each coated substrate was placed in a 150° F. (66° C.) oven for 1.5 minutes, followed by a 300° F. (149° C.) oven for 1.0 minute and a 400° F. (204° C.) oven for 0.75 minute, resulting in a 0.04 mm thick fluorescent colored vinyl film.
The resultant films were laminated to Scotchlite 3970 reflective sheeting on aluminum panels as described in Examples 8-10. Color values were measured as described in Examples 8-10 and the results set out in TABLE VI.

[8] = dye 0.3 wt-% in PMMA CP923, 0.1 mm film on Scotchlite 3970
[9] = dye 1.0 wt-% in PMMA CP923, 0.1 mm film on Scotchlite 3970
[10] = dye 0.2 wt-% in PMMA CP923, 0.1 mm film on Scotchlite 3970

## O=c1c2ccccc2c2cc(OCCO)c3sc4ccccc4c4ccc1c2c34 [6-(2-hydroxy-ethoxy)-14H-anthra(2,1,9-mna)thioxanthene-14-one, reference compound]
[1]
  X (daytime chromaticity): 0.6000
  YF (fluorescence luminance factor): 10.09
  YT (total luminance factor): 14.71
  y (daytime chromaticity): 0.2756

## COc1cc2c3ccccc3c(=O)c3ccc4c5ccccc5sc1c4c32 [6-methoxy-14H-anthra(2,1,9-mna)thioxanthene-14-one, reference compound]
[2]; [8]
  X (daytime chromaticity): 0.6072
  YF (fluorescence luminance factor): 11.64
  YT (total luminance factor): 17.02
  y (daytime chromaticity): 0.3117
[2]; [9]
  X (daytime chromaticity): 0.5723
  YF (fluorescence luminance factor): 3.67
  YT (total luminance factor): 5.28
  y (daytime chromaticity): 0.3064
[2]
  visual inspection of film for undissolved dye: particles of dye in the film
[3]
  YF (fluorescence luminance factor): 1.12
  YT (total luminance factor): 17.05
  x (daytime chromaticity): 0.3977
  y (daytime chromaticity): 0.3225
[1]
  X (daytime chromaticity): 0.5989
  YF (fluorescence luminance factor): 9.69
  YT (total luminance factor): 14.81
  y (daytime chromaticity): 0.2780
[4]
  YF (fluorescence luminance factor): 16.15
  YT (total luminance factor): 28.24
  x (daytime chromaticity): 0.6163
  y (daytime chromaticity): 0.3025
[5]
  Dye Concentration in Acetone at RT: 0.06 mg/mL

## CCCCC(CC)COc1cc2c3ccccc3c(=O)c3ccc4c5ccccc5sc1c4c32 (stereo not shown) [Example 2, 6-[(2-Ethylhexyl)oxy]-14H-anthra[2,1,9-mna]thioxanthene-14-one]
[6]
  YF (fluorescence luminance factor): 12.77
  YT (total luminance factor): 19.91
  x (daytime chromaticity): 0.5627
  y (daytime chromaticity): 0.2785
other
  melting point: 175 to 177 °C
[2]; [10]
  X (daytime chromaticity): 0.6064
  YF (fluorescence luminance factor): 14.69
  YT (total luminance factor): 31.13
  y (daytime chromaticity): 0.3113
[2]
  visual inspection of film for undissolved dye: uniform appearance with no undissolved dye seen
[4]
  YF (fluorescence luminance factor): 16.6
  YT (total luminance factor): 32.05
  x (daytime chromaticity): 0.5336
  y (daytime chromaticity): 0.2979
[5]
  Dye Concentration in Acetone at RT: 0.96 mg/mL

## CC(C)CC(CC(C)C)Oc1cc2c3ccccc3c(=O)c3ccc4c5ccccc5sc1c4c32 [Example 3, 6-(1-Isobutyl-3-methylbutoxy)-14H-anthra[2,1,9-mna]thioxanthene-14-one]
[3]
  YF (fluorescence luminance factor): 17.05
  YT (total luminance factor): 33.17
  x (daytime chromaticity): 0.4971
  y (daytime chromaticity): 0.3113
[3]; dye in Paraloid B66 coating on Scotchlite 3970
  appearance of coated article: bright fluorescent pink appearance
[1]
  X (daytime chromaticity): 0.5970
  YF (fluorescence luminance factor): 11.62
  YT (total luminance factor): 17.66
  y (daytime chromaticity): 0.2886
[7]
  Y (daytime chromaticity): 0.2609
  YF (fluorescence luminance factor): 12.92
  YT (total luminance factor): 24.21
  x (daytime chromaticity): 0.4952
[5]
  Dye Concentration in Acetone at RT: 2.98 mg/mL
